According to US20160166701A1, “DELIVERY COMPOSITION FOR TOPICAL APPLICATIONS AND INJECTIONS AND OPHTHALMIC FORMULATIONS, METHODS FOR MANUFACTURING THEREOF, AND METHODS FOR DELIVERY OF A DRUG-DELIVERY COMPOSITION” (THERAKINE BIODELIVERY GMBH, priority 2013, published 2016):

Tests used:
[1] = test system: freshly isolated and subcultured corneal fibroblasts; assay: α-SMA positive corneal fibroblasts in normal or serum-free media, confocal microscopy on day 4 (Example 4); type: cell-based, rabbit; settings: serum-free media, 30 μg/mL, both subcultured and freshly isolated cells
Experimental: Since there is a variable amount of growth factors such as IL-1 in serum, the presence of serum may offset the effect of blocking IL-1 with the matrix formulation. In this experiment, freshly isolated and subcultured corneal fibroblasts (P2-P5) were seeded at a density of 5,000 cells/cm^2 and cultured with 30 μg/mL with human recombinant IL-1ra in either normal (NM) or Serum-Free (SF) media. Cells were analyzed on day 4 for levels of α-SMA with confocal microscopy. Cell numbers in serum-free samples were too low to recover enough protein for Western Blot analysis. 5 individuals independently counted 3 images of each of 3 samples per condition for α-SMA positive cells. Serum-free media induced lower α-SMA expression in freshly isolated cells but had no effect on subcultured cells. […] This finding supports that the phenotype of subcultured cells can be influenced by the matrix formulation.
Percentage of freshly isolated (FI) and subcultured (SC) RCFs expressing α-SMA as determined from confocal immunofluorescence on day 4 in the following conditions: normal media (NM), normal media with IL-1ra (NM+IL-1ra), serum-free (SF), and serum-free with IL-1ra (SF+IL-1ra). SF conditions decreased α-SMA levels in FI but not in SC cells. […] Data represents mean+/−standard error with n=3 (* indicate p<<0.001, θ indicate p<0.05, φ indicate p<0.005).

[2] = test system: rabbits following photorefractive keratectomy (PRK); settings: rabbit, in vivo; cited from earlier work
[3] = test system: rabbits undergoing photorefractive keratectomy (PRK) surgery; assay: Rabbit photorefractive keratectomy (PRK) study of matrix formulation with IL-1ra versus steroid control (Example 2); type: in vivo; settings: lower doses of IL-1ra and steroid group compared with higher dose of IL-1ra and control group, week 3; FIG. 6
Experimental: In Example 2; various concentrations of IL-1ra, i.e. 50 mg/ml or 2.5 mg/drop, 25 mg/ml or 1.25 mg/drop, and 5 mg/ml or 0.25 mg/drop (solutions A-C), were compared to a standard steroid control (fluorometholone) in rabbits undergoing photorefractive keratectomy (PRK) surgery. […] The final hyaluronic acid concentration (i.e. the hyaluronic acid concentration in the final matrix formulation) was 0.526% w/w, based on the total weight of the matrix formulation.
Each rabbit received PRK in both eyes at a 100 μm ablation depth. In each rabbit, the right eye (OD) served as the treated eye while the left eye (OS) served as control. […]
As before corneal clarity, forward scatter and haze measurement were used as out-come parameters. Haze formation and scattering was assessed via slit lamp exam by an ophthalmologist. The timing for re-epithelization to occur in both the treatment and control groups was measured.
In addition Pentacam technology was used to image the anterior segment of the eye via a rotating Scheimpflug process that supplied pictures in three dimensions, allowing for a precise measurement of the shape, thickness, and the contour of the cornea. Using this method, the center of the cornea, which is most critical for refractive surgery planning, is measured precisely because of this rotational imaging process. […]

[4] = test system: rabbits undergoing photorefractive keratectomy (PRK) surgery; assay: Rabbit PRK study of canakinumab incorporated in the matrix formulation (Example 3); type: in vivo
Experimental: In Example 3, a further rabbit study, similar to the design of Example 2 above, was performed using Novartis's canakinumab, a fully human antibody against Il-1 beta, incorporated in the matrix formulation using hyaluronic acid microparticles enhancing corneal adherence.
Even though it is described that canakinumab does differ from rabbit IL-1 in one amino acid, this study was performed to study the adherence characteristics, pk, and safety/tolerability of EpiKine delivering a different Il-1 inhibitor.

[5] = every data point, not statistically significant

For “IL-1ra: IL-1ra is a biologic agent (protein) that blocks IL-1”, the α-SMA expression [1] is given as “significantly decreased”, the “serious adverse events such as infections or worsening infections” value [2] is given as “No serious adverse events” and the Pentacam density measurements [3] is given as “statistically significant difference”.
With `CC(=O)[C@@]1(O)CC[C@H]2[C@@H]3C[C@H](C)C4=CC(=O)C=C[C@]4(C)[C@@]3(F)[C@@H](O)C[C@@]21C` [Steroids, fluorometholone, reference compound] the “objective haze (HRT stromal haze)” value [4, 5] was “least haze”.
With canakinumab the epithelial closure ([4]; 1.25 mg concentration, within the canakinumab concentrations) was “trend for faster closure”, the “foam layer thickness (histologic analysis)” value ([4]; 2.5 mg and 1.25 mg concentration compared to 0.25 mg concentration) was “thinner foam layers” and the “objective haze (Pentacam) densitometry values” ([4]; 2.5 mg concentration group, each time point) was “trend for lower densitometry values”. For the same compound, the corneal haze ([4]; 2.5 mg concentration, almost all data points, not statistically significant) was “trend towards lower corneal haze”, the “subjective haze (slit lamp exam)” value ([4]; 2.5 mg concentration, within the canakinumab concentrations) was “trend for lower subjective haze values” and the “objective haze (HRT stromal haze)” value ([4]; 2.5 mg, compared to control, week 2) was “statistically significant less haze”. The epithelial closure ([4]; all concentrations, compared to steroid and control group, not statistically significant) was “took longer to heal”, the adverse events ([4]; any of the concentrations, preliminary results) was “No adverse events” and the “subjective haze (slit lamp exam)” value ([4]; compared to the control group) was “as effective as steroids”. For the same compound, the “objective haze (HRT stromal haze)” value [4, 5] was “less haze than the control group”, the “safety compared to steroids” value ([4]; time frame administered in this study) was “non-inferior to steroids” and the “subjective haze (slit lamp exam)” value ([4]; weeks 2, 4, 5, not statistically significant) was “lower haze”.
